# Assay results: patent publication US20230382858A1 (Beckley Psytech Limited, priority 2020, published 2023)
# What was measured:
# [1] = system: male Sprague-Dawley rats; assay: Functional Observational Battery (FOB), effects on CNS function (ITR study 15951); format: in vivo; details: rat
# Experimental: The test and control/vehicle items were administered by single dose intranasal administration to both nostrils, as shown in Table 1.
# Parameters monitored included mortality and clinical signs. General behavioral changes were assessed using FOB at 6 timepoints: before dosing, and at 15 minutes, 1, 2, 4, and 24 hours postdosing. On each occasion, the FOB was performed at 4 stages: when the animals were in their home cage, while handling the animals, when the animals were freely moving in an open-field, and when they received diverse stimuli for reactivity evaluation. The body temperature and neuromuscular strength were also measured on each of the occasions detailed above.
# [2] = system: Sprague Dawley rats; assay: 14-day repeat-dose intranasal toxicity study with 14-day recovery in rats (Study 700041); format: in vivo, rat; details: for clinical signs: male and female; for microscopic changes in nasal cavities: male and/or female
# Experimental: (§1) The animals were monitored for mortality, clinical signs, respiratory measurements, body weights, food consumption, and body temperature. Ophthalmoscopic examinations and respiratory function tests were performed on all animals at scheduled timepoints. Clinical pathology assessments (hematology, coagulation, clinical chemistry, and urinalysis) were evaluated at termination. […] Following dosing, the Main animals were euthanized and subjected to a complete necropsy examination on Day 15. […] TK animals were euthanized after the last blood collection and discarded without further examination. At terminal euthanasia, selected tissues/organs were weighed, and microscopic evaluations of a standard set of tissues including the nasal turbinates (4 sections) and brain (7 sections) were performed for all Main and Recovery study animals.
# (§2) Following dosing, animals in the Main group were euthanized and subjected to a necropsy examination on Day 15.
# Toxicity was based on the following parameters monitored: mortality/morbidity, clinical observations, body weights/gains, food consumption, ophthalmoscopy, clinical pathology (hematology, coagulation, chemistry, and urinalysis), necropsy observations, selected organ weights, and microscopic examination of a complete set of standard tissues including 4 cross levels of the nasal cavity and 7 sections of the brain.
# [3] = Toxicokinetics in Study 62959; format: in vivo; details: dog
# Experimental: (§3) Assessments of mortality, clinical signs, olfactory reflex, body weights, food consumption, ophthalmology, and electrocardiograms were performed. In addition, clinical pathology assessments (hematology, coagulation, clinical chemistry and urinalysis) were evaluated once pretreatment and at termination. Blood samples were collected from the jugular vein of all animals on Days 1 and 14, at up to 8 time points relative to treatment, for analysis of test item concentration in plasma and the subsequent calculation of toxicokinetic parameters. Following dosing, the Main animals were euthanized and subjected to a complete necropsy examination on Day 15. […] All Main and Recovery study animals underwent complete necropsy examinations, selected tissues/organs were retained, and microscopic evaluations of a standard set of tissues were performed.
# For toxicokinetics, a series of 8 blood samples were collected from the jugular vein from all treated animals on each of Days 1 and 14 of the treatment period at 2, 5, 10, 15, 30, and 60 minutes as well as 3 and 8 hours after treatment.
# [4] = system: dogs; assay: Maximum tolerated dose followed by 7-day repeat-dose toxicology in dogs (Study 62958); format: in vivo; details: dog
# Experimental: In support of these objectives, the study consisted of 2 individual phases.
# The test item was administered once by intranasal instillation to one male and female dog for up to 5 dose levels until the highest tolerable dose (MTD) was determined as described in Table 5.
# During Phase 2, assessments of mortality, clinical signs, body weights and food consumption were performed. […] Following the last dosing, all animals were euthanized and subjected to a necropsy examination on Day 8. The necropsy consisted of an external examination; including reference to all clinically-recorded lesions, as well as a detailed internal examination. Study plan specific tissues/organs were collected and preserved following necropsy but were not further examined microscopically.
# [5] = system: Beagle dogs; assay: 14-day repeat-dose intranasal toxicity study with 14-day recovery in dogs (Study 62959); format: in vivo; details: dog; for animals with increased triglyceride level: vs control
# Experimental: as §3
# [6] = Toxicokinetics in Study 700041; format: in vivo; details: rat, intranasal 20 mg/kg/day, Day 14, Male
# Experimental: as §1, §2
# [7] = system: Dog; assay: Summary of clinical observations in applicant-sponsored dog toxicity studies; format: in vivo; details: Dog 1.0 mg/kg (33 mg HED), preliminary data, ongoing study
# Text: Based on preliminary data from another ongoing study in dogs, it has been observed that the site of blood sampling in dogs may impact the measured plasma exposure. Samples from the jugular vein may result in higher apparent exposure levels than samples from the cephalic vein, which might be due to the local transmucosal route of administration (also reported in the scientific literature (Illum, 2003; Sohlberg, 2013)). Therefore, dose escalation criteria for the Phase 1 Single Ascending Dose study are based on assessment of clinical criteria, safety factors and exposure. A maximum dose of 14 mg has been designated.
# [8] = Toxicokinetics in Study 62958 (plasma 5MeODMT, LC/MS/MS); format: in vivo; details: dog, daily intranasal instillation, 7-day treatment period
# [9] = single intranasal 1, 5, and 10 mg/kg, all dose levels
# [10] = rat, dose levels ≤75 mg/kg/day for 14 days
# [11] = intranasal 0.8 mg/kg/day, Day 1, Female
# [12] = intranasal 0.8 mg/kg/day, Day 1, Male
# [13] = intranasal 0.8 mg/kg/day, Day 14, Female
# [14] = dose escalation phase, single intranasal 2-5 mg/kg
# [15] = phase 2, MTD once daily 5 days then twice daily Days 6 and 7
structure (smiles),measurement,setting,value
"COc1ccc2[nH]cc(CCN(C)C)c2c1 [BPL-5MEO, 5-methoxy-N,N-dimethyltryptamine]",clinical sign in one animal,[1]; single intranasal 10 mg/kg,twitching
same,FOB autonomic domain,[1]; [9],"salivation, piloerection, increased respiration, dilated pupils and changes in body temperature"
same,FOB neurological (sensorimotor)/neuromuscular domain,[1]; [9],transient changes in gait (difficulty in movement)
same,FOB behavioral domain,"[1]; single intranasal 1.5, 3, 10 mg/kg, 15 minutes postdose","transient decreased activity, lying on the cage floor, and decreased rearing"
same,clinical signs in some animals,[1]; single intranasal 3 and 10 mg/kg,"Tremors, salivation, and gasping"
same,clinical signs immediately following dosing,"[1]; single intranasal, all dose groups","decreased activity, lying on the cage floor, shallow/increased respiration and dilated pupils"
same,adverse effect on reproductive tissues,[2]; 14-day pivotal GLP intranasal toxicity studies in rats and dogs,no evidence of an adverse effect on reproductive tissues
same,Thymus Mean Absolute Weight,"[2]; male rats, Group 2 (5 mg/kg/day), compared to the control value",−4 percentage
same,respiratory rate,"[2]; rat, 20 minutes postdose, vs pretreatment or control",decreases in respiratory rates
same,body temperature,"[2]; rat, Day 14, 15 and 30 minutes postdose, all treated male animals",slight body temperature increases
same,clinical signs,"[2]; rat, Group 2 (Low Dose) 5 mg/kg/day","incoordination, shaking, salivation, decreased activity, lying on cage floor and sensitive to touch"
same,clinical signs,"[2]; rat, Group 3 (Mid Dose) 20 mg/kg/day","incoordination, shaking (or tremor), increased or shallow respiration, mydriasis, salivation, decreased activity, partially closed eyes, lying on cage floor and sensitive to touch"
same,clinical signs,"[2]; rat, Group 4 (High Dose) 75 mg/kg/day","incoordination, shaking (or tremor), increased or shallow respiration, mydriasis, salivation, decreased activity, partially closed eyes, lying on cage floor and sensitive to touch"
same,macroscopic findings,"[2]; rat, Main and Recovery groups",no macroscopic findings
same,"microscopic findings in respiratory, transitional and/or olfactory epithelium of nasal cavities 1-4","[2]; rat, Main group",minimal to mild changes
same,microscopic changes in nasal cavities,"[2]; rat, Main group, 20 mg/kg/day (Group 3)",Minimal degeneration of the respiratory epithelium of the nasal cavities 1 and 2
same,microscopic changes in nasal cavities,"[2]; rat, Main group, 5 and/or 20 mg/kg/day (Group 2 and 3)",Minimal degeneration of the olfactory epithelium of the nasal cavities 2 and 3
same,reversibility of nasal microscopic changes,"[2]; rat, Recovery group, 14-day recovery period",incomplete but progressive ongoing reversal of epithelial degeneration
same,body weight gain,"[2]; rat, both sexes, Days 1 to 14","Slight, generally dose-dependent body weight gain suppression"
same,activated partial thromboplastin times (APTT),"[2]; rat, both sexes, mid (20 mg/kg/day) and high (75 mg/kg/day) dose groups, vs control",increased
same,clinical chemistry and urinalysis,[2]; [10],no changes in clinical chemistry and urinalysis parameters
same,food consumption,[2]; [10],no changes in food consumption
same,ocular effect,[2]; [10],no adverse ocular effect
same,mortality,"[2]; rat, intranasal 5, 20, 75 mg/kg/day, 14 days",No mortality
same,tolerability,"[2]; rat, intranasal, dose levels ≤75 mg/kg/day for 14 consecutive days",tolerated
same,"platelet, neutrophil, monocyte and basophil counts","[2]; rat, mid and high dose groups, both sexes, vs control",slightly increased
same,AUC(0-inf),"[3]; Beagle, plasma, inhaled or intranasal, 1.5 mg/kg/day, combined for both sexes, read-out: AUCINF_obs corresponding to NOAEL",220 ng·h/mL
same,Cmax,"[3]; intranasal 0.4 mg/kg/day, Day 1, Male",343 ng/mL
same,t1/2,"[3]; intranasal 0.4 mg/kg/day, Day 14, Female",42.4 min
same,Tmax,"[3]; intranasal 0.4 mg/kg/day, Day 14, Male",6.66 min
same,AUCINF—obs,[3]; [11],265 ng·h/mL
same,t1/2,[3]; [11],43.8 min
same,AUCINF—obs,[3]; [12],160 ng·h/mL
same,Tmax,[3]; [12],6.66 min
same,AUC0-Tlast,[3]; [13],248 ng·h/mL
same,Cmax,[3]; [13],244 ng/mL
same,Tmax,"[3]; intranasal 0.8 mg/kg/day, Day 14, Male",6.66 min
same,Tmax,"[3]; intranasal 2.5 & […], Day 1, Female",6.66 min
same,t1/2,"[3]; intranasal 2.5 & […], Day 14, Male",49 min
same,food intake,"[4]; dose escalation phase, after Dose 1 and Dose 2",Slight decreases in food intake
same,clinical signs,[4]; [14],"gnawing cage wire, dilated pupils, changes in respiration, incoordination, decreased activity, vocalization, salivation, erect penis (for males) and shaking"
same,mortality and bodyweights,[4]; [14],no BPL-5MEO-related effects on mortality or bodyweights
same,duration of convulsion shortly after dosing,"[4]; male animal, last escalating dose 3.5 mg/kg/day",8 min
same,clinical signs,[4]; [15],"muscle stiffness, gnawing cage wire, dilated pupils, changes in respiration, decreased activity, incoordination, vocalization, salivation, erect penis (for the male) and shaking"
same,mortality and bodyweights,[4]; [15],no test item-related effects on mortality or bodyweights
same,body temperature,"[5]; Day 14, high dose group, both sexes, 15 and 30 minutes postdose",Transient body temperature increases
same,"Triglyceride, Mean ± SD Day 14","[5]; Group 2, 0.4 mg/kg/day, Females",0.46 ± 0.61 mmol/L
same,"Triglyceride, Mean ± SD Day 14","[5]; Group 2, 0.4 mg/kg/day, Males",0.40 ± 0.11 mmol/L
same,"Triglyceride, Mean ± SD Day 14","[5]; Group 3, 0.8 mg/kg/day, Females",0.47 ± 0.22 mmol/L
same,"Triglyceride, Mean ± SD Day 14","[5]; Group 3, 0.8 mg/kg/day, Males",0.44 ± 0.07 mmol/L
same,animals with increased triglyceride level,[5]; Group 3 female,1/3
same,animals with increased triglyceride level,[5]; Group 4 females,4/5
same,animals with increased triglyceride level,[5]; Group 4 male,1/5
same,additional clinical observations,[5]; Mid and High dose groups,eye discharge and shaking
same,time to resolution of clinical signs,[5]; all treated groups,≤ 90 min
same,transient clinical observation,[5]; all treated groups,"incoordination, vocalization, mydriasis, decreased or increased activity, increased respiration, gnawing cage wire, excessive licking of nose or lips and circling"
same,additional clinical observation,[5]; high dose male animals,Erect penis
same,t1/2,[6],8.58 min
same,Clinical observation,[7],Slight tremor
same,accumulation,[8],did not accumulate
